From patent US10457672B2, “γ-diketones as Wnt/β-catenin signaling pathway activators” (Samumed, LLC, priority 2013, dated 2019)

These compounds were tested on Wnt/β-catenin signaling pathway (Wnt-responsive SP5 promoter luciferase reporter in SW480 cells) (assay: Wnt reporter (SP5 promoter-firefly luciferase) activation assay in SW480 cells). Conditions: Homo sapiens; SW480 colon cancer cells with SP5 promoter luciferase reporter; 24 h after compound addition; normalized to DMSO; concentration at half maximal activation.
Format: cell-based
Protocol: Compounds that enhance the Wnt activity, or Activators, were assayed as follows. Reporter cell lines were generated by stably transducing cells of colon cancer cell lines (with a lentiviral construct that included a Wnt-responsive promoter driving expression of the firefly luciferase gene).
Lentiviral constructs were made in which the SP5 promoter, a promoter having eight TCF/LEF binding sites derived from the SP5 promoter, was linked upstream of the firefly luciferase gene. The lentiviral constructs also included a hygromycin resistance gene as a selectable marker. The SP5 promoter construct was used to transduce SW480 cells, a colon cancer cell line having a mutated APC gene that generates a truncated APC protein, leading to de-regulated accumulation of β-catenin.
Cultured SW480 cells bearing a reporter construct were distributed at approximately 10,000 cells per well into 384- or 96-well multiwell plates. Compounds from a small molecule compound library were then added to the wells in half-log dilutions using a maximum concentration of three or ten micromolar. A series of control wells for each cell type received only buffer and compound solvent DMSO. Twenty-four hours after the addition of compound, reporter activity for luciferase was assayed, for example, by addition of the BrightGlo luminescence reagent (Promega) and the Victor3 plate reader (Perkin Elmer). Readings were normalized to DMSO only treated cells, and any activities above DMSO were considered activation. Compounds were considered activators if reporter activities were 2× fold or greater than DMSO. EC50 is the concentration at half maximal activation.

| Compound | EC50 [nM] |
| --- | --- |
| O=C(CCC(=O)c1ccccc1C(F)(F)F)c1ccc2c(c1)SCCO2 [Compound 16, 1-(2,3-Dihydrobenzo[b][1,4]oxathiin-6-yl)-4-(2-(trifluoromethyl)phenyl)butane-1,4-dione] | 7 |
| O=C(CCC(=O)c1n[nH]c2ccccc12)c1ccccc1C(F)(F)F [Compound 326, 1-(1H-Indazol-3-yl)-4-(2-(trifluoromethyl)phenyl)butane-1,4-dione] | 117 |
| COc1ccccc1C(=O)CCC(=O)c1ccc2c(c1)OCO2 [Compound 216, 1-(Benzo[d][1,3]dioxol-5-yl)-4-(2-methoxyphenyl)butane-1,4-dione] | 11 |
| Cc1ccccc1C(=O)CCC(=O)c1ccc2occc2c1 [Compound 455, 1-(Benzofuran-5-yl)-4-(o-tolyl)butane-1,4-dione] | 32 |
| O=C(CCC(=O)c1ccc2[nH]cnc2c1)c1cccc(C(F)(F)F)c1 [Compound 263, 1-(1H-Benzo[d]imidazol-5-yl)-4-(3-(trifluoromethyl)phenyl)butane-1,4-dione] | > 10000 |
| Cc1ccccc1C(=O)CCC(=O)c1ccc2c(c1)CCCO2 [Compound 358, 1-(Chroman-6-yl)-4-(o-tolyl)butane-1,4-dione] | 14 |
| COc1ccc(C(=O)CCC(=O)c2ccncn2)cc1OC [Compound 432, 1-(3,4-Dimethoxyphenyl)-4-(pyrimidin-4-yl)butane-1,4-dione] | 4800 |
| COc1ccccc1C(=O)CCC(=O)c1cccs1 [Compound 562, 1-(2-Methoxyphenyl)-4-(thiophen-2-yl)butane-1,4-dione] | 106 |
| O=C(CCC(=O)c1ccccc1C(F)(F)F)c1ccc2[nH]ncc2c1 [Compound 498, 1-(1H-Indazol-5-yl)-4-(2-(trifluoromethyl)phenyl)butane-1,4-dione] | 12 |
| O=C(CCC(=O)c1ccccc1F)c1ccc2c(c1)SCCO2 [Compound 19, 1-(2,3-Dihydrobenzo[b][1,4]oxathiin-6-yl)-4-(2-fluorophenyl)butane-1,4-dione] | 3 |
| O=C(CCC(=O)c1ccc2c(c1)SCCO2)c1ccccc1 [Compound 28, 1-(2,3-Dihydrobenzo[b][1,4]oxathiin-6-yl)-4-phenylbutane-1,4-dione] | 9 |
| O=C(CCC(=O)c1ncccn1)c1ccc2c(c1)CCCO2 [Compound 362, 1-(Chroman-6-yl)-4-(pyrimidin-2-yl)butane-1,4-dione] | 188 |
| COc1cccc(C(=O)CCC(=O)c2c[nH]c3ccccc23)c1 [Compound 320, 1-(1H-Indol-3-yl)-4-(3-methoxyphenyl)butane-1,4-dione] | > 10000 |
| Cc1cccc(C(=O)CCC(=O)c2ccc3c(c2)OC(F)(F)O3)c1 [Compound 379, 1-(2,2-Difluorobenzo[d][1,3]dioxol-5-yl)-4-(m-tolyl)butane-1,4-dione] | > 10000 |
| O=C(CCC(=O)c1ccc2c(c1)OCCO2)c1ccc(C(F)(F)F)cc1 [Compound 10, 1-(2,3-Dihydrobenzo[b][1,4]dioxin-6-yl)-4-(4-(trifluoromethyl)phenyl)butane-1,4-dione] | > 10000 |
| O=C(CCC(=O)c1ccccc1F)c1ccc2[nH]ncc2c1 [Compound 495, 1-(2-Fluorophenyl)-4-(1H-indazol-5-yl)butane-1,4-dione] | 8 |
| COc1ccc(C(=O)CCC(=O)c2n[nH]c3ccccc23)cc1 [Compound 334, 1-(1H-Indazol-3-yl)-4-(4-methoxyphenyl)butane-1,4-dione] | > 10000 |
| O=C(CCC(=O)c1ccccn1)c1ccc2[nH]ccc2c1 [Compound 258, 1-(1H-Indol-5-yl)-4-(pyridin-2-yl)butane-1,4-dione] | 16 |

| Compound | EC50 [nM] |
| --- | --- |
| O=C(CCC(=O)c1cccs1)c1ccc2[nH]ccc2c1 [Compound 451, 1-(1H-Indol-5-yl)-4-(thiophen-2-yl)butane-1,4-dione] | 37 |
| Cc1ccc(C(=O)CCC(=O)c2ccc3occc3c2)cc1 [Compound 457, 1-(Benzofuran-5-yl)-4-(p-tolyl)butane-1,4-dione] | 2890 |
| Cc1ccccc1C(=O)CCC(=O)c1ccc2[nH]ccc2c1 [Compound 445, 1-(1H-indol-5-yl)-4-(o-tolyl)butane-1,4-dione] | 10 |
| O=C(CCC(=O)c1ncccc1C(F)(F)F)c1ccc2c(c1)OCCO2 [Compound 570, 1-(2,3-Dihydrobenzo[b][1,4]dioxin-6-yl)-4-(3-(trifluoromethyl)pyridin-2-yl)butane-1,4-dione] | 26 |
| O=C(CCC(=O)c1ncccc1F)c1ccc2c(c1)OCCO2 [Compound 569, 1-(2,3-Dihydrobenzo[b][1,4]dioxin-6-yl)-4-(3-fluoropyridin-2-yl) butane-1,4-dione] | 1.96 |
| COc1ccc(C(=O)CCC(=O)c2cccnn2)cc1OC [Compound 433, 1-(3,4-Dimethoxyphenyl)-4-(pyridazin-3-yl)butane-1,4-dione] | > 10000 |
| O=C(CCC(=O)c1ccc2c(c1)SCCO2)c1ccc(F)cc1 [Compound 21, 1-(2,3-Dihydrobenzo[b][1,4]oxathiin-6-yl)-4-(4-fluorophenyl)butane-1,4-dione] | 31 |
| O=C(CCC(=O)c1cccs1)c1ccc2c(c1)OCO2 [Compound 374, 1-(Benzo[d][1,3]dioxol-5-yl)-4-(thiophen-2-yl)butane-1,4-dione] | 13 |
| O=C(CCC(=O)c1cccc2c1OCCO2)c1ccco1 [Compound 442, 1-(2,3-Dihydrobenzo[b][1,4]dioxin-5-yl)-4-(furan-2-yl)butane-1,4-dione] | 2150 |
| O=C(CCC(=O)c1ccc2ocnc2c1)c1ccccc1 [Compound 300, 1-(Benzo[d]oxazol-5-yl)-4-phenylbutane-1,4-dione] | 18 |
| O=C(CCC(=O)c1ccccn1)c1ccc2sccc2c1 [Compound 310, 1-(Benzo[b]thiophen-5-yl)-4-(pyridin-2-yl)butane-1,4-dione] | 68 |
| COc1ccccc1C(=O)CCC(=O)c1ccc2[nH]ccc2c1 [Compound 255, 1-(1H-Indol-5-yl)-4-(2-methoxyphenyl)butane-1,4-dione] | 17 |
| O=C(CCC(=O)c1ccccc1F)c1ccccn1 [Compound 538, 1-(2-Fluorophenyl)-4-(pyridin-2-yl)butane-1,4-dione] | 63 |
| O=C(CCC(=O)c1ccc2c(c1)OCCO2)c1cncnc1 [Compound 345, 1-(2,3-Dihydrobenzo[b][1,4]dioxin-6-yl)-4-(pyrimidin-5-yl)butane-1,4-dione] | > 10000 |
| COc1ccccc1C(=O)CCC(=O)c1ccc2ocnc2c1 [Compound 294, 1-(Benzo[d]oxazol-5-yl)-4-(2-methoxyphenyl)butane-1,4-dione] | 1720 |
| COc1ccc(C(=O)CCC(=O)c2cccc(C)c2)cc1OC [Compound 425, 1-(3,4-Dimethoxyphenyl)-4-(m-tolyl)butane-1,4-dione] | 5950 |
| O=C(CCC(=O)c1ccco1)c1ccc2c(c1)OC(F)(F)O2 [Compound 385, 1-(2,2-Difluorobenzo[d][1,3]dioxol-5-yl)-4-(furan-2-yl)butane-1,4-dione] | 165 |
| O=C(CCC(=O)c1ccncn1)c1ccc2c(c1)OCCO2 [Compound 340, 1-(2,3-Dihydrobenzo[b][1,4]dioxin-6-yl)-4-(pyrimidin-4-yl)butane-1,4-dione] | 209 |

Same assay, conditions: SW480 colon cancer cells with SP5 promoter luciferase reporter; 24 h after compound addition; normalized to DMSO; concentration at half maximal activation

| Compound | EC50 [nM] |
| --- | --- |
| O=C(CC(=O)c1cc(O)c2c(c1O)OCCO2)c1ccccc1 [Compound 3, 1-(5,8-dihydroxy-2,3-dihydrobenzo[b][1,4]dioxin-6-yl)-3-phenylpropane-1,3-dione] | > 10000 |
